Results from ChEMBL document CHEMBL1141896, “Synthesis and structure-activity relationships of piperidinylpyrrolopyridine derivatives as potent and selective H1 antagonists” (Bioorg Med Chem Lett, 2005).
One block for each molecule: values may come before it.

What was measured:
[1] = molecular target: Serotonin 2 (5-HT2) receptor (Homo sapiens, UniProt P41595+P28223+P28335); assay: Inhibitory concentration against 5-hydroxytryptamine 2 receptor; format: protein assay
[2] = molecular target: T1, Adrenergic receptor alpha-1 (Rattus norvegicus, UniProt P15823+P23944+P43140); assay: Binding affinity towards Alpha-1 adrenergic receptor in rat brain using [3H]prazosin as radioligand; format: tissue-based
T1 sequence (P15823 whole entry): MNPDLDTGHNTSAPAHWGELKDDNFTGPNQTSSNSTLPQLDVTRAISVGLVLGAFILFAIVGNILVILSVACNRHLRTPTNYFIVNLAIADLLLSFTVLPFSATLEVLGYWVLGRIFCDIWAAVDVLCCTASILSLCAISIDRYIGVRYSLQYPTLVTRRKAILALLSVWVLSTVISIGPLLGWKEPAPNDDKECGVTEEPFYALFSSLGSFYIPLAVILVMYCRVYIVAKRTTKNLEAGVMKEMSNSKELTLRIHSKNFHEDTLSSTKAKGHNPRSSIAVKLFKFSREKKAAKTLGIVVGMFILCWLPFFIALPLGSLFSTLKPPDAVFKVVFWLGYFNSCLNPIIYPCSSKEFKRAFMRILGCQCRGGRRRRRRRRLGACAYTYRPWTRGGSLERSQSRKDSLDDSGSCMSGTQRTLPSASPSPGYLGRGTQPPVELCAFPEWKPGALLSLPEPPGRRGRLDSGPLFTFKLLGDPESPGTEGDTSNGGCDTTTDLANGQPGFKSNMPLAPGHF
T1 sequence (P23944 whole entry): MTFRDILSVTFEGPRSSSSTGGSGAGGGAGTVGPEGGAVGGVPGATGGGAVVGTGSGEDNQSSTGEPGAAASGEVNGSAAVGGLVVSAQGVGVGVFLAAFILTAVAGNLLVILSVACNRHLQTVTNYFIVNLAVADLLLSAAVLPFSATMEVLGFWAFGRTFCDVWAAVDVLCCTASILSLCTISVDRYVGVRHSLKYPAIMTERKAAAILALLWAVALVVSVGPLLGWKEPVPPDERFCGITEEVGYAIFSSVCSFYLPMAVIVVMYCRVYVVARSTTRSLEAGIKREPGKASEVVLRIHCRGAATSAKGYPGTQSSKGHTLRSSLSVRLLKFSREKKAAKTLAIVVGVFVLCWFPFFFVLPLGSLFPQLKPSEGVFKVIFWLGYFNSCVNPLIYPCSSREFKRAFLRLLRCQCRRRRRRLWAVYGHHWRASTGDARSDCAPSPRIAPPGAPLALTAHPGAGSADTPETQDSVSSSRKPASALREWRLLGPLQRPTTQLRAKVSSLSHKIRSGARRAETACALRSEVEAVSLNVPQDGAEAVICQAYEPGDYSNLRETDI
T1 sequence (P43140 whole entry): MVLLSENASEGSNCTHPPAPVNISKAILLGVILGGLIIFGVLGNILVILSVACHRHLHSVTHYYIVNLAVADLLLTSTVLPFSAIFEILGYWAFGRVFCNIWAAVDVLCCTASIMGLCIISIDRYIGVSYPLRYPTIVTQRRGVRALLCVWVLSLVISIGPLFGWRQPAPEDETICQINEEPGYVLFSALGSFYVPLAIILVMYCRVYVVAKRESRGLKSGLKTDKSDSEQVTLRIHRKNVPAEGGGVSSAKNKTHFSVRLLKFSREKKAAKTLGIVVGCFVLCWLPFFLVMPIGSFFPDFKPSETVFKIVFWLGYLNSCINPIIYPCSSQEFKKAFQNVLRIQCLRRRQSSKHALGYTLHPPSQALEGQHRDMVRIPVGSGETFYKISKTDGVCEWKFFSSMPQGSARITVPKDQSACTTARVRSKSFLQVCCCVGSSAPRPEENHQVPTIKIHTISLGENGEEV

Histamine H1 receptor = Histamine H1 receptor (Cavia porcellus, UniProt P31389); assay: Inhibitory concentration against histamine-H1 receptor
Sequence of Histamine H1 receptor (P31389 whole entry): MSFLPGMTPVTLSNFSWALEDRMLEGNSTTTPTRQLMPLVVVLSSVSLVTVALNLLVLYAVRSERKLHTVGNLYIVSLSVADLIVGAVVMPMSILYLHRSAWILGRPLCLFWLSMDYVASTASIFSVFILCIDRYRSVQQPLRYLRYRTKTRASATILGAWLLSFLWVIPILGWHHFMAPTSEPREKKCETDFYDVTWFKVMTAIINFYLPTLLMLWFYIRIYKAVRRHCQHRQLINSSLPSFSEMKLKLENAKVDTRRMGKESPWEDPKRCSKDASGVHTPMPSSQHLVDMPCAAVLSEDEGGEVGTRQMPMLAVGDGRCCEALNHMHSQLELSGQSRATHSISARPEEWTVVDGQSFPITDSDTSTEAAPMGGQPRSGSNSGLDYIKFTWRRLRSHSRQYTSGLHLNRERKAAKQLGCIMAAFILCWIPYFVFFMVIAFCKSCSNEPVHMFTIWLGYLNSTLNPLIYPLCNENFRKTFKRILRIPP

Rattus norvegicus [3] = species: Rattus norvegicus; assay: Effective dose against Histamine-induced skin vascular permeability model in rat after 4 hr (n = 5); format: functional
Rattus norvegicus [4] = species: Rattus norvegicus; assay: Effective dose against Histamine-induced skin vascular permeability model in rat after 8 hr (n = 5); format: functional
[5] = molecular target: Histamine H1 receptor (Mus musculus) (UniProt P70174); assay: Ex vivo effective binding dose against histamine-H1 receptor (n = 3)
Sequence of Histamine H1 receptor (Mus musculus) (P70174 whole entry, looked up): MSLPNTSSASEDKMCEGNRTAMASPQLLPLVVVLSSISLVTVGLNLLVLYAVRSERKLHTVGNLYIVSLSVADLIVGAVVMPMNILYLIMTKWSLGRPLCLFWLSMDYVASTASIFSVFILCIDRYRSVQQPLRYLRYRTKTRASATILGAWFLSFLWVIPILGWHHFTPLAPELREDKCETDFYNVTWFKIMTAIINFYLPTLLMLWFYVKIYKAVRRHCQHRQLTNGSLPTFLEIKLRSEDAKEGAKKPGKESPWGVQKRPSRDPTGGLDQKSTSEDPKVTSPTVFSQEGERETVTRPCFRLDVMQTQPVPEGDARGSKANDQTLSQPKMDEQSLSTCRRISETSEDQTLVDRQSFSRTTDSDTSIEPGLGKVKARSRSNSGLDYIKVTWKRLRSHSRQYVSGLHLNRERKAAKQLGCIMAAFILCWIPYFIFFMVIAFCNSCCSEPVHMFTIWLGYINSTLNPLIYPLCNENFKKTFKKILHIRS

Rattus norvegicus [6] = assay: Inhibition of Histamine-induced skin vascular permeability model in rat after 4 hr at 1 mg/Kg (n = 5); format: functional

SMILES: CCOCCn1cc(C2CCN(Cc3cccc(C(=O)O)c3)CC2)c2ccccc21
- IC50 [1]: 4950 nM
- IC50 [2]: > 10000 nM
- IC50 (Histamine H1 receptor): 403 nM
- ED50 (Rattus norvegicus [3]): 0.07 mg/kg
- ED50 (Rattus norvegicus [4]): 0.45 mg/kg
- ED50 [5]: 16 mg/kg

SMILES: CCOCCn1cc(C2CCN(Cc3ccc(OC)c(C(=O)O)c3)CC2)c2ccccc21
- IC50 [1]: 10000 nM
- IC50 [2]: > 10000 nM
- IC50 (Histamine H1 receptor): 690 nM
- ED50 (Rattus norvegicus [3]): 0.05 mg/kg
- ED50 [5]: 5.4 mg/kg

SMILES: CCCCn1cc(C2CCN(Cc3cccc(C(=O)O)c3)CC2)c2ccccc21
- IC50 [1]: > 10000 nM
- IC50 [2]: > 10000 nM
- IC50 (Histamine H1 receptor): 275 nM
- ED50 (Rattus norvegicus [3]): 1 mg/kg

SMILES: O=C(O)c1cccc(CN2CCC(c3cn(Cc4ccc(Cl)s4)c4ccccc34)CC2)c1
- IC50 [1]: > 10000 nM
- IC50 [2]: > 10000 nM
- inhibition in vivo at 1 mg/kg (Rattus norvegicus [6]): 7%
- IC50 (Histamine H1 receptor): 330 nM

- IC50 [1]: > 10000 nM
- IC50 [2]: > 10000 nM
- IC50 (Histamine H1 receptor): 190 nM
- ED50 [5]: 34 mg/kg
SMILES: CCOCCn1cc(C2CCN(CCOc3ccccc3C(=O)O)CC2)c2ccccc21
- ED50 (Rattus norvegicus [3]): 0.08 mg/kg
- ED50 (Rattus norvegicus [4]): 0.02 mg/kg

SMILES: COc1ccc(CN2CCC(c3cn(Cc4ccc(Cl)s4)c4ccccc34)CC2)cc1C(=O)O
- IC50 [1]: 10000 nM
- IC50 [2]: > 10000 nM
- IC50 (Histamine H1 receptor): 365 nM
- ED50 (Rattus norvegicus [3]): 0.5 mg/kg
- ED50 (Rattus norvegicus [4]): 0.7 mg/kg
- ED50 [5]: 57 mg/kg

SMILES: O=C(O)c1cccc(CN2CCC(c3cn(Cc4ccoc4)c4ccccc34)CC2)c1
- IC50 [1]: 10000 nM
- IC50 [2]: > 10000 nM
- IC50 (Histamine H1 receptor): 560 nM
- ED50 (Rattus norvegicus [3]): 1 mg/kg

SMILES: CCCCn1cc(C2CCN(Cc3ccc(OC)c(C(=O)O)c3)CC2)c2ccccc21
- IC50 [1]: > 10000 nM
- IC50 [2]: > 10000 nM
- IC50 (Histamine H1 receptor): 475 nM
- ED50 (Rattus norvegicus [3]): 0.08 mg/kg
- ED50 (Rattus norvegicus [4]): 0.13 mg/kg
- ED50 [5]: 69 mg/kg

- IC50 [1]: 3272 nM
- IC50 [2]: 10000 nM
- IC50 (Histamine H1 receptor): 86 nM
- ED50 [5]: 8 mg/kg
SMILES: CCOCCn1cc(C2CCN(CCOc3ccccc3C=O)CC2)c2ccccc21
- ED50 (Rattus norvegicus [3]): 0.1 mg/kg
- ED50 (Rattus norvegicus [4]): 0.22 mg/kg

SMILES: COc1ccc(CN2CCC(c3cn(Cc4ccoc4)c4ccccc34)CC2)cc1C(=O)O
- IC50 [1]: 10000 nM
- IC50 [2]: > 10000 nM
- IC50 (Histamine H1 receptor): 205 nM
- ED50 (Rattus norvegicus [3]): 0.2 mg/kg
- ED50 (Rattus norvegicus [4]): 0.2 mg/kg
- ED50 [5]: 15 mg/kg
